Some test systems named below: CCRF-CEM leukemia; A549 NSCLC; SF-539 CNS; SN12C renal; SNB-75 CNS; OVCAR-8 ovarian; RPMI-8226 leukemia; NCI/ADR-RES ovarian; EKVX NSCLC; HL-60(TB) leukemia.
What all share (assay): NCI-60 cell line screen, 48 h

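Exposure lasted 48 hours, with cells grown in 96-well plates and compounds tested at five concentrations. GI50: concentration for 50% inhibition of growth. TGI marks complete inhibition of growth.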 Bounds are passed on as bounds.

As for `N#Cc1c(-c2ccccc2)c2c([nH]c1=O)-c1cc([N+](=O)[O-])ccc1CCC2`, the TGI in the assay on CCRF-CEM leukemia was 94.3 µM; in the assay with A549 NSCLC it was above 100 µM; in the assay on SF-539 CNS it was 82.5 µM; with SN12C renal, above 100 µM; in the assay on SNB-75 CNS, 49.9 µM; in the assay with OVCAR-8 ovarian it was above 100 µM. Moreover, the TGI is above 100 µM in the assay with RPMI-8226 leukemia, 71.5 µM in the assay with NCI/ADR-RES ovarian, 88.5 µM in the assay with EKVX NSCLC and 72.3 µM with HL-60(TB) leukemia.
Consider `O=C1OC(c2ccccc2)N(C(=O)c2ccccc2)C1Cc1ccc(OCc2ccccc2)cc1` (stereo not given), for which the TGI in the assay with CCRF-CEM leukemia, in the assay on A549 NSCLC, in the assay with SF-539 CNS, in the assay on SN12C renal, in the assay on SNB-75 CNS and in the assay with OVCAR-8 ovarian was above 100 µM each time. In addition, the TGI in the assay on RPMI-8226 leukemia, in the assay on NCI/ADR-RES ovarian, with EKVX NSCLC and in the assay with HL-60(TB) leukemia was above 100 µM in each case.
With `CC1(C)N=C2C(=O)c3c([nH]c4ccccc34)[C@]3(C)CCC1CC23` (stereo not given in full), the TGI in the assay on CCRF-CEM leukemia, in the assay on A549 NSCLC, in the assay with SF-539 CNS, with SN12C renal, with SNB-75 CNS and in the assay with OVCAR-8 ovarian was above 6.25 µM in each case. The TGI with RPMI-8226 leukemia, in the assay with NCI/ADR-RES ovarian, with EKVX NSCLC and in the assay on HL-60(TB) leukemia was above 6.25 µM throughout.
With `CCOC(=O)c1ccc(Nc2nc3ccc(C(F)(F)F)cc3nc2C(=O)OCC)cc1`, the TGI in the assay with CCRF-CEM leukemia, in the assay with A549 NSCLC, in the assay with SF-539 CNS, in the assay with SN12C renal, with SNB-75 CNS and in the assay with OVCAR-8 ovarian was above 100 µM in each case. Besides, the TGI in the assay on RPMI-8226 leukemia, with NCI/ADR-RES ovarian, in the assay with EKVX NSCLC and in the assay on HL-60(TB) leukemia was above 100 µM throughout.
Regarding `Cc1cc(C)nc(NS(=O)(=O)c2ccc(NC(=O)c3cccc4c(NNc5ccc(S(=O)(=O)N=C(N)N)cc5)c5ccccc5nc34)cc2)n1`, the TGI with CCRF-CEM leukemia, in the assay with A549 NSCLC, in the assay on SF-539 CNS, in the assay with SN12C renal, in the assay on SNB-75 CNS and in the assay on OVCAR-8 ovarian was above 50 µM in each case. For the same compound, the TGI in the assay with RPMI-8226 leukemia, with NCI/ADR-RES ovarian, with EKVX NSCLC and in the assay on HL-60(TB) leukemia was above 50 µM each time.
As for `CC(C)N1CN(c2ccccc2)C2(CCN(CCCC(=O)c3ccc(F)cc3)CC2)C1=O`, the TGI with CCRF-CEM leukemia was 9.61 µM; in the assay with A549 NSCLC it was above 100 µM; in the assay with SF-539 CNS, 22.1 µM; in the assay on SN12C renal it was above 55.4 µM; in the assay on SNB-75 CNS it was above 91.6 µM; with OVCAR-8 ovarian, above 82 µM. Also, the TGI with RPMI-8226 leukemia was 31.1 µM; in the assay with NCI/ADR-RES ovarian, 31.1 µM; in the assay with EKVX NSCLC it was above 100 µM; with HL-60(TB) leukemia, 40.7 µM.
`O=C(CC(C(=O)c1ccco1)c1ccco1)c1ccco1` (stereo not given): the TGI in the assay with CCRF-CEM leukemia, in the assay with A549 NSCLC, with SF-539 CNS, with SN12C renal, in the assay with SNB-75 CNS and in the assay with OVCAR-8 ovarian was above 100 µM throughout. Further, the TGI in the assay with RPMI-8226 leukemia, in the assay with NCI/ADR-RES ovarian, with EKVX NSCLC and in the assay with HL-60(TB) leukemia was above 100 µM in each case.
As to `Clc1ccc(/C(=C\c2ccccc2)Cn2ccnc2)cc1`, the TGI in the assay on CCRF-CEM leukemia is above 100 µM; in the assay on A549 NSCLC, 49.4 µM; in the assay on SF-539 CNS, 31.5 µM; in the assay on SN12C renal, 89.2 µM; in the assay with SNB-75 CNS, 59.4 µM; in the assay on OVCAR-8 ovarian, 33.4 µM. Besides, the TGI in the assay on RPMI-8226 leukemia was 73.7 µM; in the assay with NCI/ADR-RES ovarian, 38 µM; in the assay with EKVX NSCLC it was 68.4 µM; with HL-60(TB) leukemia it was 45.5 µM.
Take `O=C(OCC1OC(n2nc(Cn3nnc(-c4cccnc4)n3)n(-c3cccc4ccccc34)c2=S)C(OC(=O)c2ccccc2)C1OC(=O)c1ccccc1)c1ccccc1` (stereo not given): the TGI with CCRF-CEM leukemia, with A549 NSCLC, in the assay on SF-539 CNS, in the assay with SN12C renal, in the assay with SNB-75 CNS and in the assay on OVCAR-8 ovarian was above 100 µM throughout. Moreover, the TGI in the assay on RPMI-8226 leukemia, in the assay on NCI/ADR-RES ovarian, in the assay on EKVX NSCLC and in the assay on HL-60(TB) leukemia was above 100 µM throughout.
With `COc1ccc2c(c1)c(=O)c1c(NCCNCCO)ccc3c(=O)n(CCN(C)C)c(=O)n2c31`, the TGI in the assay with CCRF-CEM leukemia was above 100 µM; in the assay on A549 NSCLC, 3.17 µM; in the assay on SF-539 CNS it was 0.612 µM; with SN12C renal, 0.64 µM; in the assay with SNB-75 CNS, 0.503 µM; in the assay with OVCAR-8 ovarian, 1.16 µM. Further, the TGI was 1.15 µM in the assay with RPMI-8226 leukemia, 15 µM in the assay on NCI/ADR-RES ovarian, 0.819 µM in the assay with EKVX NSCLC and above 100 µM in the assay on HL-60(TB) leukemia.
In the case of `COc1ccc(-n2nc(C)c3c(Nc4ccc(NC(=O)Nc5ccc(Cl)c(C(F)(F)F)c5)cc4)ncnc32)cc1`, the GI50 is 2.2 µM with CCRF-CEM leukemia; 1.88 µM with A549 NSCLC; 1.24 µM with SF-539 CNS; 2.63 µM with SN12C renal; 0.553 µM in the assay on SNB-75 CNS; 2.84 µM in the assay on OVCAR-8 ovarian. The GI50 with RPMI-8226 leukemia was 1.34 µM; in the assay with NCI/ADR-RES ovarian, 1.78 µM; in the assay with EKVX NSCLC, 2.19 µM; with HL-60(TB) leukemia, 2.1 µM. Further, the TGI in the assay on CCRF-CEM leukemia was above 100 µM; in the assay on A549 NSCLC it was 6.31 µM; in the assay on SF-539 CNS, 3.2 µM; in the assay on SN12C renal it was 9.37 µM; in the assay on SNB-75 CNS, 4.55 µM; with OVCAR-8 ovarian it was 11.7 µM. For the same compound, the TGI with RPMI-8226 leukemia was 4.21 µM; in the assay on NCI/ADR-RES ovarian, 6.22 µM; in the assay on EKVX NSCLC, 5.55 µM; in the assay on HL-60(TB) leukemia it was 4.95 µM.

For the origin of these results see PubChem BioAssay (NCI).
